Assay results taken from patent US5336690A, “Aminosulfonyl carbamates composition and method of use to treat hypercholesterolemia and atherosclerosis” (Warner-Lambert Company, priority 1993, dated 1994).
Counter-ions that a name gives are not always drawn. Like-named read-outs stand apart in the source and are kept apart here.

What was measured:
[1] = target: T1, acyl-CoA: cholesterol acyltransferase (ACAT) (Oryctolagus cuniculus, UniProt G1SFD9); experiment: in vitro ACAT inhibition (IAI): formation of radiolabeled cholesterol oleate from radiolabeled oleic acid in rabbit intestinal microsomes; format: biochemical
T1 construct: tissue preparation containing rabbit intestinal microsomes; from tissue; host or cells: rabbit intestinal microsomes
T1 sequence (G1SFD9 1-524): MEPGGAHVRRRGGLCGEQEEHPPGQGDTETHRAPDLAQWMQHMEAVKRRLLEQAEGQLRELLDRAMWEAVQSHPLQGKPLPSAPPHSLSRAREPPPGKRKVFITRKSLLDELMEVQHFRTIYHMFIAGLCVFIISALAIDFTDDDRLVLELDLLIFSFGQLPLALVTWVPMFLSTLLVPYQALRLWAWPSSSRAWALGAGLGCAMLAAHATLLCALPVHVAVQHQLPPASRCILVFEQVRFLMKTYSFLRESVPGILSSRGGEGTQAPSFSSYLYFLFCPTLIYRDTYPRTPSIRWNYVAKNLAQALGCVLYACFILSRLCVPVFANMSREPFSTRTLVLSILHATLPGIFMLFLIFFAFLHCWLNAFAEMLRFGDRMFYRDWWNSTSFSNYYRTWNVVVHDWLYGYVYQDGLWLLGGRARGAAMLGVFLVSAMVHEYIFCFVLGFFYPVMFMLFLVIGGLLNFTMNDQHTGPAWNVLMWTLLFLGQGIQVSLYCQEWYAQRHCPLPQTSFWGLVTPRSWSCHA
Description: The ability of representative compounds of the present invention to inhibit ACAT was measured using an in vitro test more fully described in F. J. Field and R. G. Salone, Biochemica et Biophysica 712:557-570 (1982). The test assesses the ability of a test compound to inhibit the acylation of cholesterol by oleic acid by measuring the amount of radiolabeled cholesterol oleate formed from radiolabeled oleic acid in a tissue preparation containing rabbit intestinal microsomes.

[2] = APCC in vivo screen: blood cholesterol in male Sprague-Dawley rats on high fat, high cholesterol diet with 0.5% cholic acid; conditions: high fat high cholesterol diet overnight; for change in vivo at 30 mg/kg / % Change (mg/dl) (cholesterol): single dose 30 mg/kg; for % Change (mg/dl) (cholesterol): 30 mg/kg
Text: In one in vivo screen designated APCC, male Sprague-Dawley rats (200 to 225 g) were randomly divided into treatment groups and dosed at 4 PM with either vehicle (CMC/Tween) or suspensions of compounds in vehicle. The normal chow diet was then replaced with a high fat, high cholesterol diet with 0.5% cholic acid. The rats consumed this diet ad libitum during the night and were sacrificed at 8 AM to obtain blood samples for cholesterol analysis using standard procedures. Statistical differences between mean cholesterol values for the same vehicle were determined using analysis of variance followed by Fisher's least significant test. The compounds were dosed at 30 mg/kg unless otherwise noted.

[3] = rabbit intestinal microsomes, read-out: IAI IC50
[4] = Rattus norvegicus, read-out: % Change (mg/dl) (cholesterol)

Compound	IC50 [1, 3] [µM]	change in vivo at 30 mg/kg [2, 4] [%]	further results
COC(=O)NS(=O)(=O)Nc1c(C(C)C)cccc1C(C)C [Example 1, Methyl [[2,6-bis(1-methylethyl)phenylamino]sulfonyl]carbamate]	> 100		
Cc1cc(C(C)(C)C)c(OC(=O)NS(=O)(=O)N(C)CCc2ccccc2)c(C(C)(C)C)c1 [Example 27, 2,6-Bis(1,1-dimethylethyl)-4-methylphenyl[[methyl(2-phenylethyl)amino]sulfonyl]carbamate]	18.9	-29	
CC(C)c1cccc(C(C)C)c1OC(=O)NS(=O)(=O)N1CCN(C)CC1 [Example 53, 2,6-Bis(1-methylethyl)-phenyl ester, monohydrochloride[(4-methyl-1-piperazinyl)-sulfonyl] carbamic acid]			IC50 [1]: > 100 µM; change in vivo at 30 mg/kg ([2]; rat, read-out: % Change (mg/dl) (cholesterol)): -21%
CC(C)c1cccc(C(C)C)c1NS(=O)(=O)NC(=O)Oc1c(-c2ccccc2)cccc1-c1ccccc1 [Example 56, [1,1':3', 1"-terphenyl]-2'-yl[[[2,6-bis(1-methylethyl)phenyl]amino]sulfonyl]carbamat]	> 25	-39	
CC(C)c1cccc(C(C)C)c1OC(=O)NS(=O)(=O)N1CCOCC1 [Example 50, 2,6-Bis(1-methylethyl)-phenyl ester(4-morpholinylsulfonyl)-carbamic acid]	> 100	-14	
Cc1cc(C(C)(C)C)c(OC(=O)NS(=O)(=O)N(C)CCc2ccccn2)c(C(C)(C)C)c1 [Example 32, 2,6-Bis(1,1-dimethylethyl)-4-methylphenyl[[[methyl 2-(2-pyridinyl)ethyl]amino]sulfonyl]carbamate, hydrochloride salt]	31		% Change (mg/dl) (cholesterol) ([2]; rat, hydrochloride salt): -10 % Change (mg/dl)
CC(C)(C)c1cccc(C(C)(C)C)c1OC(=O)NS(=O)(=O)NC(c1ccccc1)c1ccccc1 [Example 5, 2,6-bis(1,1-dimethylethyl)phenyl[[(diphenylmethyl)amino]sulfonyl]carbamate]			change in vivo at 50 mg/kg ([2]; Rattus norvegicus, single dose 50 mg/kg (*), read-out: % Change (mg/dl) (cholesterol)): -35%
CCCCN(CCCC)S(=O)(=O)NC(=O)Oc1c(C(C)C)cccc1C(C)C [Example 11, 2,6-Bis(1-methylethyl)phenyl[(dibutylamino)sulfonyl]carbamate]	1.9		% Change (mg/dl) (cholesterol) ([2]; rat): -57 % Change (mg/dl)
CCCCCCCCN(C)S(=O)(=O)NC(=O)Oc1c(C(C)C)cccc1C(C)C [Example 40, 2,6-Bis(1-methylethyl)phenyl[(methyloctylamino)sulfonyl]carbamate]		-60	
CC(C)c1cccc(C(C)C)c1OC(=O)NS(=O)(=O)N1CCCCC1 [Example 51, 2,6-Bis(1-methylethyl)-phenyl ester(1-piperidinylsulfonyl)-carbamic acid]	> 100	-11	
